Assays:
HCoV-OC43 = test: OC43 virion RNA, Branched DNA assay, infected HCT8 cells; type: cell-based, human coronavirus OC43; conditions: for OC43 vRNA reduction siRNA and siGRP78: 10 nM siRNA along with 10 nM of siRNA targeting GRP78, HCT8 cells; for OC43 vRNA reduction: 10 nM siRNA, HCT8 cells
Experimental: The siRNAs were transfected in the HCT8 cells at a final concentration of 10 nM. A positive control for the inhibition of Coronavirus infection, Remdesivir (Rem), was used at 0.9 μM. The virion RNAs (vRNAs) were quantified using a Branched DNA assay specific for OC43 RNA.
The two siRNAs are those referred to by compound number (see Table 2) in the horizontal bar, along with siRNA targeting GRP78, siGRP78. A positive control for the inhibition of Coronavirus infection, Remdesivir (Rem), was used at 0.9 μM. The vRNAs were quantified using a Branched DNA assay specific for OC43 RNA.
The siRNAs listed in Table 2 were transfected into human colon epithelial HCT8 cells and the amount of OC43 virion produced was quantified. In these assays, the OC43 vRNA was quantified using a Branched DNA assay (QuantiGene gene expression assay: ThermoFisher). As a positive inhibitory control, the infected cells were treated with Remdesivir. […] Examples of the inhibition of OC43 vRNA are illustrated in FIG. 5A.
A combination of siRNAs targeting the host factor should more robustly reduce OC43 virion production. To illustrate this, HCT8 cells were transfected with 10 nM of siRNAs from Table 2 along with 10 nM of siRNA targeting GRP78. The virion RNAs produced were quantified using the Branched DNA assay. […] A combination of siRNAs targeting host factors GRP78, SRSF1, RPLP1 and RPLP2 can lead to significant reduction in the production of human Coronavirus virion RNA from infected cells.

HBeAg = conditions: 10 nM siRNA transfected into cells
Experimental: HBeAg in the cell culture media was assessed using ELISAs.
(§1) The ability of siRNAs targeting host factors that then results in the reduced production of multiple HBV molecules was evaluated by quantifying the amount of HBsAg, HBeAg, and Core protein produced by HepG2.2.15 cells after contacting with 10 nM of siRNAs that target HNRNPA2B1, GRP78, RPLP1, RPLP2, and SRSF1. We also contacted the cells with 5 nM of each set of siRNAs that targets both RPLP1 and RPLP2. The level of HBsAg, HBeAg, and Core were all determined using ELISAs.
(§2) The library of siRNAs of Example A5 were tested for the reduction of HBsAg secreted by HepG2.2.15 cells and in HBV virions.

HBsAg = conditions: read-out: EC50, Extracell. HBsAg reduction; HepG2.2.15 cells
Experimental: (§3) Cell viability was assessed by ATP levels determined using the CellTiter-Glo reagent and the results normalized to the level in mock-treated cells. HBsAg levels were quantified using ELISA and the data normalized to the level in the mock-treated cells.
The cellular proteins GRP78/BIP, SRSF1, HNRNPA2B1, RPLP1, and RPLP2 were identified as having roles in HBV replication and infection. Various siRNAs and combinations thereof targeting the RNAs encoding these proteins were contacted with HepG2.2.15 cells at a final concentration of 7.5 nM.
The EC50 values of several siRNAs and combinations of siRNAs targeting HNRNPA2B1, GRP78, RPLP1, RPLP2, and/or SRSF1 were determined with respect to the ability to reduce HBsAg levels in HepG2.2.15 cells.
as §1, §2

RPLP1 mRNA = test: Target mRNA reduction by RT-qPCR in HepG2.2.15 cells; type: cell-based, human; conditions: 10 nM siRNA
Text: The siRNAs identified as described in Example A6 should function by a mechanism that includes being loaded in the RISC complex to cleave the cognate mRNA, leading to the degradation of the mRNA. To examine whether the siRNAs are effective in reducing the target mRNA, we used reverse transcription coupled with quantitative polymerase chain reaction (RT-qPCR) to assess the level of the target mRNA in HepG2.2.15 cells. All 32 siRNAs described in Table 2 reduced the mRNA by more than 75% (Table 3).

HepG2.2.15 cells = test: HepG2.2.15 cell viability, CellTiter-Glo; conditions: read-out: CC50, HepG2.2.15 cell viability; highest concentration tested 80 nM
Experimental: as §3
The effects on cell viability were quantified using the CellTiter-Glo reagent. All data were normalized to the amount of protein produced by mock-treated cells.
as §2

RPLP1 protein = test: Target protein reduction by Western blot in HepG2.2.15 cells; type: cell-based, human; conditions: 10 nM siRNA, 72 h
Experimental: The host factors likely function in viral infection as proteins. Therefore, we determined whether the siRNAs could decrease the amounts of the target protein. Cell transfected with 10 nM of each siRNA for 72 h were lysed and the target proteins identified using Western blots probed with target-specific antibodies. The effective siRNAs described in Table 3 reduced the levels of the proteins by between 28 and 92% of the mock-treated samples. The reduction in the proteins is less than the reduction of the target mRNA, likely due to the proteins have prolonged half-life and that more time is needed for their degradation. […] We reason that this is due to RPLP1 and RPLP2 functioning as heterodimers such that a decrease of one protein increases the vulnerability of the other protein to degradation. Similar concomitant decrease of the proteins was reported by Campos et al. (17). Finally, the levels of two cellular proteins that are not targeted by the siRNAs, P54nrb and GAPDH, were unaffected.

Row | Substance | OC43 vRNA reduction siRNA and siGRP78 (HCoV-OC43) [%] | OC43 vRNA reduction (HCoV-OC43) [%] | HBeAg reduction HepG2.2.15 cells (HBeAg) [%] | EC50 (HBsAg) [pM] | Target RNA reduction in HepG2.2.15 cells (RPLP1 mRNA) [%] | CC50 (HepG2.2.15 cells) [pM] | Target protein reduction in HepG2.2.15 cells (RPLP1 protein) [%]
1 | 30 (AGGAUAAGAUCAAUGCCCUUCUUGAAGGGCAUUGAUCUUAUCCUUU; siRNA; Self-complementary hairpin strand, chemistry not given here, further chemistry not given here; listed as Homo sapiens) [compound 30] | 84 ± 6 | 90 ± 6 | 58 ± 4 | 690 | 78 ± 3 | > 80000 | 45 ± 8
2 | 26 (GAAGCAAAGAAAGAAGAAUCCTTAUUCUUCUUUCUUUGCUUCCATT; siRNA; Self-complementary hairpin strand, chemistry not given here, further chemistry not given here; listed as Homo sapiens) [compound 26] | 95 ± 1 | 91 ± 3 | 64 ± 3 | 376 | 86 ± 1 | > 80000 | 72 ± 17
3 | 28 (UAUGGCCUCUGUCUCCGAGCUUUAGCUCGGAGACAGAGGCCAUAUU; siRNA; Self-complementary hairpin strand, chemistry not given here, further chemistry not given here; listed as Homo sapiens) [compound 28] | 71 ± 6 | 48 ± 12 | 30 ± 4 | 190 | 80 ± 2 | > 80000 | 58 ± 7
4 | 25 (GAUCAAUGCCCUCAUUAAAGCTTUUUAAUGAGGGCAUUGAUCUUTT; siRNA; Self-complementary hairpin strand, chemistry not given here, further chemistry not given here; listed as Homo sapiens) [compound 25] | 88 ± 3 | 80 ± 7 | 60 ± 3 | 1830 | 74 ± 6 | > 80000 | 53 ± 12
5 | 27 (GGUCUUUUUGACUAAACCUCUTTAGGUUUAGUCAAAAAGACCAATT; siRNA; Self-complementary hairpin strand, chemistry not given here, further chemistry not given here; listed as Homo sapiens) [compound 27] | 95 ± 2 | 94 ± 4 | 55 ± 5 | 110 | 72 ± 7 | > 80000 | 51 ± 9
6 | 32 (AGAAGAAAGUGGAAGCAAAGAUUUCUUUGCUUCCACUUUCUUCUUU; siRNA; Self-complementary hairpin strand, chemistry not given here, further chemistry not given here; listed as Homo sapiens) [compound 32] | 86 ± 4 | 87 ± 4 | 32 ± 6 | 525 | 80 ± 7 | > 80000 | 71 ± 8
7 | 29 (UGUCUCCGAGCUCGCCUGCAUUUAUGCAGGCGAGCUCGGAGACAUU; siRNA; Self-complementary hairpin strand, chemistry not given here, further chemistry not given here; listed as Homo sapiens) [compound 29] | 92 ± 3 | 87 ± 10 | 58 ± 3 | 386 | 75 ± 1 | > 80000 | 52 ± 4

— US11613750B2, “Methods of reducing virus molecule levels” (priority 2019, dated 2023)
